What all share (type): functional, organism-based
The species entered for assay [1] is Mus musculus. The assay can be described thus: Determination of serum specificity with immunogen 3-MBSA in ELISA against the respective tachykinins of mice; - indicates Nondetectable interaction. (In general: An ELISA detects its analyte on a solid surface through an enzyme-linked reagent.)
The species named for assay [2] is Mus musculus. The assay can be described thus: Determination of serum specificity with immunogen 2-MBSA in ELISA against the respective tachykinins of mice; +++ indicates Strong recognition.
The species entered for assay [3] is Mus musculus. The assay can be described thus: Determination of serum specificity with immunogen 1-MBSA in ELISA against the respective tachykinins of mice; - indicates Nondetectable interaction.

Structures are written as SMILES. Calls of active or inactive are those of the source. No cut-off for these calls is given here.

For `CSCC[C@H](NC(=O)[C@H](CC(C)C)NC(=O)CNC(=O)[C@@H](NC(=O)[C@H](Cc1ccccc1)NC(=O)[C@H](CO)NC(=O)[C@H](CC(=O)O)NC(=O)[C@@H](NC(=O)[C@H](CCCCN)NC(=O)[C@@H](N)Cc1c[nH]cn1)[C@@H](C)O)C(C)C)C(N)=O`, the Specificity entry in assay [1] and in assay [3] was “inactive” in each case. For the same compound, in assay [2], the Specificity entry was “Active”.

For the origin of these results see ChEMBL document CHEMBL1124305, “Synthesis and immunological evaluation of N-terminal, noncrossreactive tachykinin antigens” (J Med Chem, 1988).
